Where a name gives a salt, the structure may show the parent alone.
How the values were obtained:
[1] = tested on: foot edema reversed passive Arthus reaction; experiment: Foot edema reversed passive Arthus reaction; assay type: in vivo, Male Crj:SD rats
Experimental: The effect of the keratan sulfate oligosaccharide was examined on the foot edema reversed passive Arthus reaction of rats, which is a type III allergic inflammation model. That is, the rabbit antiovalbumin serum was subcutaneously administered to the planta of the rats which were previously subjected to the administration of the test substances, furthermore ovalbumin was administered by injection into the caudal vein thereof to induce inflammation (edema), and the inhibitory effect on edema of the test substances was examined.
Male Crj:SD rats of five weeks old were subjected to a fast of about 17 hours after a week period of quarantine, and, before inducing inflammation, subjected to the administration of the purified keratan sulfate tetrasaccharide (I) which was prepared in Example 1, indomethacin (Sigma; Lot No. 19F0018), or dexamethasone (Banyu Pharmaceutical); Decadron injection; Lot No. 8D307P) as the test substances, or saline (Otsuka Pharmaceutical; Lot No. K3H72) as the negative control. The keratan sulfate tetrasaccharide (I) and dexamethasone were dissolved in saline, respectively, and the indomethacin was dissolved in 0.5% sodium carboxymethylcellulose (CMC-Na; Wako Pure Chemical Industries; Lot No. PTN1418) in use. The volume of dose was 0.5 ml per 100 g weight in each test. Concerning the route of administration, the keratan sulfate tetrasaccharide (I), saline, and dexamethasone were administered from the caudal vein, and the indomethacin was orally administered. And the substances except for indomethacin were administered by the blind method.
The dose and administration schedule of each test substance were as follows. Each group consisted of five animals.
The rabbit antiovalbumin serum was subcutaneously administered to each of the rats described above on the planta thereof, and ovalbumin was further administered by injection into the caudal vein to induce inflammation foot edema. The antiserum used was prepared as follows. That is, to the regions of back of rabbits, 1 ml of the equivalently mixed solution (emulsion) of the saline containing 2% ovalbumin (10 mg per one animal, Egg Albumin 5×Cryst, Lot No. P93601; Seikagaku Corporation) and the Freund's complete adjuvant (FCA) was intradermally injected once a week three times totally to subject themselves to sensitization. About 34 days after the last sensitization, the blood was drawn to obtain the antiserum. The antibody titer of the antiserum obtained was determined by the double layer method. Namely, the determination was performed using the white precipitation reaction of the antiserum diluted with saline and the saline containing 0.1% ovalbumin (1 mg/ml) as the indicator. As a result, the antibody titer of the antiserum obtained was x2^7.
After the period which is designed for each group, each 0.1 ml of the sixfold diluted antiserum was subcutaneously administered to the planta of left rear foot of the rats which were subjected to the administration of each test substance. Then, the saline containing 0.5% ovalbumin (25 mg/5 ml/kg) was administered into the caudal vein to induce inflammation. The volume of the treated feet in each group was determined before inducing inflammation, and one, two, three and four hours after inducing inflammation by a foot volume determining device (TK-101, Unicom) to yield the foot edematization rate from the difference from the value before the induction, and the edematization inhibitory rate of the test substance administered group to the control group was calculated. In each edematization rate obtained, the difference between the averages was tested by the minimum significant difference test. The foot edematization rate and the edematization inhibitory rate of each administered group are shown in Table 9, and the foot edematization rate of the administered groups which was subjected to the administration of the agent at five minutes and at three hours before inducing inflammation are shown in FIG. 6 and FIG. 7, respectively. […]

[2] = tested on: MRL-lpr/lpr mice; experiment: Repeated intramuscular administration for 56 days in MRL mice (lymph node weight); assay type: in vivo
Experimental: The effect of the keratan sulfate oligosaccharide was examined on MRL mice which are autoimmune disease model mice.
The PBS solution of the purified keratan sulfate disaccharide (III) which was prepared in Example 1 described above at a dose of 2.5 mg/kg, 5 mg/kg, or 10 mg/kg weight (hereinafter referred to as the 2.5 mg/kg administered group, the 5 mg/kg administered group, and the 10 mg/kg administered group, respectively), and PBS as the control (hereinafter sometimes referred to as the control group) was intramuscularly injected, respectively, to the femoral region of MRL-lpr/lpr mice seven times a week for eight weeks. After that, the mice were subjected to anatomization, and the weight of mesenteric lymph nodes and submandibular lymph nodes were determined to obtain the average weight, respectively. The results concerning mesenteric lymph nodes and submandibular lymph nodes are shown in FIG. 15 and FIG. 16 with the standard errors, respectively. In each group, seven mice were used.

Q: For `CC(=O)N[C@H]1[C@H](O[C@H]2[C@@H](O)[C@@H](COS(=O)(=O)O)O[C@@H](O[C@H]3[C@H](O)[C@@H](NC(C)=O)C(O)O[C@@H]3COS(=O)(=O)O)[C@@H]2O)O[C@H](COS(=O)(=O)O)[C@@H](O[C@@H]2O[C@H](COS(=O)(=O)O)[C@H](O)[C@H](O)[C@H]2O)[C@@H]1O` (stereo partly drawn) [keratan sulfate tetrasaccharide (I), Gal(6S)β1-4GlcNAc(6S)β1-3Gal(6S)β1-4GlcNAc(6S)], which “Inhibitory Rate” value ([1]; 1 Hour Later, 1 mg/kg i.v. at 5 minutes before inducing edema) is on record?
A: 28.7%

Q: What about the “Edematization Rate” value ([1]; 1 Hour Later, 1 mg/kg i.v. at 5 minutes before inducing edema, P < 0.01, control 40.9) of the same molecule?
A: 29.2 ± 1.3%

Q: And the “Inhibitory Rate” value ([1]; 1 Hour Later, 1 mg/kg i.v. at 3 hours before inducing edema)?
A: 13.4%

Q: And the “Edematization Rate” value ([1]; 1 Hour Later, 1 mg/kg i.v. at 3 hours before inducing edema, control 40.9)?
A: 35.4 ± 1.6%

Q: And the “Inhibitory Rate” value ([1]; 1 Hour Later, 3 mg/kg i.v. at 5 minutes before inducing edema)?
A: 15.8%

Q: And the “Edematization Rate” value ([1]; 1 Hour Later, 3 mg/kg i.v. at 5 minutes before inducing edema, control 40.9)?
A: 34.4 ± 5.2%

Q: And the “Inhibitory Rate” value ([1]; 1 Hour Later, 3 mg/kg i.v. at 3 hours before inducing edema)?
A: 10.6%

Q: What about the “Edematization Rate” value ([1]; 1 Hour Later, 3 mg/kg i.v. at 3 hours before inducing edema, control 40.9) of the same molecule?
A: 36.5 ± 3.5%

Q: What about the “Inhibitory Rate” value ([1]; 1 Hour Later, 10 mg/kg i.v. at 5 minutes before inducing edema) of the same molecule?
A: 28.9%

Q: What about the “Edematization Rate” value ([1]; 1 Hour Later, 10 mg/kg i.v. at 5 minutes before inducing edema, P < 0.01, control 40.9) of the same molecule?
A: 29.1 ± 3.7%

Q: What about the “Inhibitory Rate” value ([1]; 1 Hour Later, 10 mg/kg i.v. at 3 hours before inducing edema) of the same molecule?
A: -8.1%

Q: What about the “Edematization Rate” value ([1]; 1 Hour Later, 10 mg/kg i.v. at 3 hours before inducing edema, control 40.9) of the same molecule?
A: 44.2 ± 3.4%

Q: What about the “Inhibitory Rate” value ([1]; 2 Hours Later, 1 mg/kg i.v. at 5 minutes before inducing edema) of the same molecule?
A: 36.5%

Q: And the “Edematization Rate” value ([1]; 2 Hours Later, 1 mg/kg i.v. at 5 minutes before inducing edema, P < 0.01, control 46.3)?
A: 29.4 ± 2.9%

Q: What about the “Inhibitory Rate” value ([1]; 2 Hours Later, 1 mg/kg i.v. at 3 hours before inducing edema) of the same molecule?
A: 8.4%

Q: And the “Edematization Rate” value ([1]; 2 Hours Later, 1 mg/kg i.v. at 3 hours before inducing edema, control 46.3)?
A: 42.4 ± 3.6%

Q: And the “Inhibitory Rate” value ([1]; 2 Hours Later, 3 mg/kg i.v. at 5 minutes before inducing edema)?
A: 8.6%

Q: And the “Edematization Rate” value ([1]; 2 Hours Later, 3 mg/kg i.v. at 5 minutes before inducing edema, control 46.3)?
A: 42.3 ± 4.2%

Q: And the “Inhibitory Rate” value ([1]; 2 Hours Later, 3 mg/kg i.v. at 3 hours before inducing edema)?
A: 23.9%

Q: What about the “Edematization Rate” value ([1]; 2 Hours Later, 3 mg/kg i.v. at 3 hours before inducing edema, P < 0.01, control 46.3, 3 mg/kg) of the same molecule?
A: 35.3%

Q: And the “Edematization Rate” value ([1]; 2 Hours Later, 3 mg/kg i.v. at 3 hours before inducing edema, P < 0.01, control 46.3, listed as Keratan Sulfate Tetrasaccharide (I), 3 mg/kg)?
A: 35.3 ± 2.3%

Q: And the “Inhibitory Rate” value ([1]; 2 Hours Later, 10 mg/kg i.v. at 5 minutes before inducing edema)?
A: 9.1%

Q: What about the “Edematization Rate” value ([1]; 2 Hours Later, 10 mg/kg i.v. at 5 minutes before inducing edema, control 46.3) of the same molecule?
A: 42.1 ± 2.9%

Q: What about the “Inhibitory Rate” value ([1]; 2 Hours Later, 10 mg/kg i.v. at 3 hours before inducing edema) of the same molecule?
A: 0.4%

Q: And the “Edematization Rate” value ([1]; 2 Hours Later, 10 mg/kg i.v. at 3 hours before inducing edema, control 46.3)?
A: 46.1 ± 2.6%

Q: What about the “Inhibitory Rate” value ([1]; 3 Hours Later, 1 mg/kg i.v. at 5 minutes before inducing edema) of the same molecule?
A: 17.0%

Q: What about the “Edematization Rate” value ([1]; 3 Hours Later, 1 mg/kg i.v. at 5 minutes before inducing edema, P < 0.01, control 51.2) of the same molecule?
A: 42.3 ± 3.6%

Q: What about the “Inhibitory Rate” value ([1]; 3 Hours Later, 1 mg/kg i.v. at 3 hours before inducing edema) of the same molecule?
A: 8.4%

Q: And the “Edematization Rate” value ([1]; 3 Hours Later, 1 mg/kg i.v. at 3 hours before inducing edema, control 51.2)?
A: 46.7 ± 2.6%

Q: What about the “Inhibitory Rate” value ([1]; 3 Hours Later, 3 mg/kg i.v. at 5 minutes before inducing edema) of the same molecule?
A: 9.5%

Q: What about the “Edematization Rate” value ([1]; 3 Hours Later, 3 mg/kg i.v. at 5 minutes before inducing edema, control 51.2) of the same molecule?
A: 46.1 ± 2.2%

Q: What about the “Inhibitory Rate” value ([1]; 3 Hours Later, 3 mg/kg i.v. at 3 hours before inducing edema) of the same molecule?
A: 21.5%

Q: And the “Edematization Rate” value ([1]; 3 Hours Later, 3 mg/kg i.v. at 3 hours before inducing edema, P < 0.01, control 51.2)?
A: 40.1 ± 2.8%

Q: And the “Inhibitory Rate” value ([1]; 3 Hours Later, 10 mg/kg i.v. at 5 minutes before inducing edema)?
A: 12.3%

Q: What about the “Edematization Rate” value ([1]; 3 Hours Later, 10 mg/kg i.v. at 5 minutes before inducing edema, control 51.2) of the same molecule?
A: 44.8 ± 5.1%

Q: And the “Inhibitory Rate” value ([1]; 3 Hours Later, 10 mg/kg i.v. at 3 hours before inducing edema)?
A: 18.7%

Q: What about the “Edematization Rate” value ([1]; 3 Hours Later, 10 mg/kg i.v. at 3 hours before inducing edema, P < 0.01, control 51.2, 10 mg/kg) of the same molecule?
A: 41.5%

Q: And the “Edematization Rate” value ([1]; 3 Hours Later, 10 mg/kg i.v. at 3 hours before inducing edema, P < 0.01, control 51.2, listed as Keratan Sulfate Tetrasaccharide (I), 10 mg/kg)?
A: 41.5 ± 1.8%

Q: And the “Inhibitory Rate” value ([1]; 4 Hours Later, 1 mg/kg i.v. at 5 minutes before inducing edema)?
A: 11.3%

Q: What about the “Edematization Rate” value ([1]; 4 Hours Later, 1 mg/kg i.v. at 5 minutes before inducing edema, control 44.9) of the same molecule?
A: 39.8 ± 3.0%

Q: What about the “Inhibitory Rate” value ([1]; 4 Hours Later, 1 mg/kg i.v. at 3 hours before inducing edema) of the same molecule?
A: 15.5%

Q: What about the “Edematization Rate” value ([1]; 4 Hours Later, 1 mg/kg i.v. at 3 hours before inducing edema, P < 0.05, control 44.9, 1 mg/kg) of the same molecule?
A: 38%

Q: And the “Edematization Rate” value ([1]; 4 Hours Later, 1 mg/kg i.v. at 3 hours before inducing edema, P < 0.05, control 44.9, listed as Keratan Sulfate Tetrasaccharide (I), 1 mg/kg)?
A: 38.0 ± 3.5%

Q: What about the “Inhibitory Rate” value ([1]; 4 Hours Later, 3 mg/kg i.v. at 5 minutes before inducing edema) of the same molecule?
A: 17.1%

Q: And the “Edematization Rate” value ([1]; 4 Hours Later, 3 mg/kg i.v. at 5 minutes before inducing edema, P < 0.05, control 44.9, 3 mg/kg)?
A: 37.2%

Q: What about the “Edematization Rate” value ([1]; 4 Hours Later, 3 mg/kg i.v. at 5 minutes before inducing edema, P < 0.05, control 44.9, listed as Keratan Sulfate Tetrasaccharide (I), 3 mg/kg) of the same molecule?
A: 37.2 ± 3.1%

Q: What about the “Inhibitory Rate” value ([1]; 4 Hours Later, 3 mg/kg i.v. at 3 hours before inducing edema) of the same molecule?
A: 24.4%

Q: What about the “Edematization Rate” value ([1]; 4 Hours Later, 3 mg/kg i.v. at 3 hours before inducing edema, P < 0.01, control 44.9) of the same molecule?
A: 33.9%

Q: And the “Inhibitory Rate” value ([1]; 4 Hours Later, 10 mg/kg i.v. at 5 minutes before inducing edema)?
A: 21.2%

Q: What about the “Edematization Rate” value ([1]; 4 Hours Later, 10 mg/kg i.v. at 5 minutes before inducing edema, P < 0.01, control 44.9) of the same molecule?
A: 35.4%

Q: And the “Inhibitory Rate” value ([1]; 4 Hours Later, 10 mg/kg i.v. at 3 hours before inducing edema)?
A: 23.2%

Q: What about the “Edematization Rate” value ([1]; 4 Hours Later, 10 mg/kg i.v. at 3 hours before inducing edema, P < 0.01, control 44.9) of the same molecule?
A: 34.5%

Q: What about the “foot edematization rate, significance (result in words)” value ([1]; after an hour, administration at five minutes before inducing inflammation) of the same molecule?
A: the significant difference was observed in the 1 mg/kg administered group and the 10 mg/kg administered group

Q: And the “foot edematization rate, significance (result in words)” value ([1]; an hour after inducing inflammation, administration at three hours before)?
A: significant difference was not observed an hour after inducing inflammation

Q: How did the “weight increase in mesenteric lymph nodes (FIG. 15)” value ([2]; 2.5 mg/kg i.m.) turn out when `CC(=O)N[C@H]1C(O)O[C@H](COS(=O)(=O)O)[C@@H](O[C@@H]2O[C@H](COS(=O)(=O)O)[C@H](O)[C@H](O)[C@H]2O)[C@@H]1O` (stereo partly drawn) [keratan sulfate disaccharide (III), Gal(6S)β1-4GlcNAc(6S)] was run?
A: a suppressive effect on the weight increase in mesenteric lymph nodes was observed

Q: What about the “weight increase in mesenteric lymph nodes and submandibular lymph nodes (FIG. 15, FIG. 16)” value ([2]; 10 mg/kg i.m.) of the same molecule?
A: that in mesenteric lymph nodes and submandibular lymph nodes were observed

— US5939403A, “Keratan sulfate oligosaccharide fraction and pharmaceutical containing the same” (Seikagaku Corporation, priority 1994, dated 1999)
